Assay results from the Kinase Knowledgebase extract (Sharma et al. 2016).

Biological target: CDK2 (UniProt P24941)
Experiment: Enzyme Assay

Row | IC50 | SMILES
1 | < 50 µM | O=C(Nc1csc(-c2ccncc2)n1)Nc1nc(-c2cccnc2)cs1
2 | < 50 µM | O=C(Nc1csc(-c2cccnc2)n1)Nc1nc(-c2ccccc2)cs1
3 | < 50 µM | CN(C(=O)Nc1csc(-c2ccncc2)n1)c1ccccn1
4 | < 50 µM | NC(=O)c1ccc(NC(=O)Nc2csc(-c3ccncc3)n2)nc1
5 | < 50 µM | O=C(Nc1cccc(N2CCOCC2)n1)Nc1csc(-c2ccncc2)n1
6 | < 50 µM | CCCc1cccc(NC(=O)Nc2csc(-c3ccncc3)n2)n1
7 | < 50 µM | Cc1cccnc1NC(=O)Nc1csc(-c2ccncc2)n1
8 | < 50 µM | CCN(CC)c1cccc(NC(=O)Nc2csc(-c3ccncc3)n2)n1
9 | < 50 µM | O=C(Nc1ccccn1)Nc1csc(-c2ccccn2)n1
10 | < 50 µM | O=C(Nc1csc(-c2cccnc2)n1)Nc1nccs1
11 | < 50 µM | O=C(Nc1csc(-c2ccncc2)n1)Nc1csc(-c2ccncc2)n1
12 | < 50 µM | O=C(Nc1cccc(N2CCCCC2)n1)Nc1csc(-c2ccncc2)n1
13 | < 50 µM | O=C(Nc1csc(-c2cccnc2)n1)Nc1csc(-c2cccnc2)n1
14 | < 50 µM | O=C(Nc1csc(-c2ccncc2)n1)Nc1ccc2ccccc2n1
15 | < 50 µM | Cc1ccc(NC(=O)Nc2csc(-c3ccncc3)n2)nc1
16 | < 50 µM | Cc1cccc(NC(=O)Nc2csc(-c3cccnc3)n2)n1

Row | IC50 | SMILES
17 | < 50 µM | CN1CCN(c2cccc(NC(=O)Nc3csc(-c4ccncc4)n3)n2)CC1
18 | < 50 µM | CN(C)CCNc1cccc(NC(=O)Nc2csc(-c3ccncc3)n2)n1
19 | < 50 µM | O=C(Nc1ccc(C(F)(F)F)cn1)Nc1csc(-c2ccncc2)n1
20 | < 50 µM | CCc1ccnc(NC(=O)Nc2csc(-c3ccncc3)n2)c1
21 | < 50 µM | CCCc1cccc(NC(=O)Nc2csc(-c3ccnc(CC)c3)n2)n1
22 | < 50 µM | O=C(Nc1cccc(NCCCN2CCOCC2)n1)Nc1csc(-c2ccncc2)n1
23 | < 50 µM | O=C(Nc1csc(-c2cccnc2)n1)Nc1nc(-c2cccnc2)cs1
24 | < 50 µM | CCc1cccc(NC(=O)Nc2csc(-c3ccncc3)n2)n1
25 | < 50 µM | O=C(Nc1csc(-c2ccncc2)n1)Nc1cccc2[nH]cnc12
26 | < 50 µM | Cc1cccc(NC(=O)Nc2csc(-c3ccncc3)n2)n1
27 | < 50 µM | O=C(Nc1csc(-c2ccncc2)n1)Nc1cc2ccccc2c(Br)n1
28 | < 50 µM | CCN(CC)Cc1cccc(NC(=O)Nc2csc(-c3ccncc3)n2)n1
29 | < 50 µM | O=C(Nc1ccccn1)Nc1csc(-c2ccncc2)n1
30 | < 50 µM | O=C(Nc1ccccn1)Nc1csc(-c2cccnc2)n1
31 | < 50 µM | O=C(Nc1csc(-c2ccncc2)n1)Nc1nccs1
32 | < 50 µM | CCCc1cccc(NC(=O)Nc2cccc(-c3cccnc3)c2)n1
